Tests used:
HeLa cells = experiment: Duration of light exposure on HeLa cells treated with dye-modified TiO2 nanoparticles; format: cell-based; conditions: dark or 30 minutes of 750 W halogen visible light, fixed 24 hours post exposure
Procedure: In this Example, we tested the duration of light exposure on cells treated with dye-modified TiO2 nanoparticles. […] Cells were fixed in 4% formaldehyde 24 hours post exposure and 1 μm slices fluorescence confocal images are presented. […] The cellular response is heterogeneous.

plasmid DNA = experiment: Plasmid DNA nicking by agarose gel electrophoresis after light exposure; format: biochemical; conditions: visible light, 150 W halogen bulb, 10 min
Procedure: The effect of visible light activated ARS-coated TiO2 nanoparticles was assessed by illuminating plasmid containing samples with a Fiber-Lite MI-150High Intensity Fiber Optic EKE 150 W21VHalogen Light Illuminator (Dolan-Jenner Industries, Boxborough, Mass., USA) for 10 min. […] All samples were then run on a 1.25% agarose gel at 60V for 4 h, stained with GelStar (Lonza, Mapleton, Ill., USA), and imaged on a Kodak Gel Logic 2200 Imaging System (Kodak, Rochester, N.Y., USA).
Considering these factors, we sought to determine the effect of visible light activated ARS-coated TiO2 nanoparticles on plasmid DNA integrity using a standard agarose gel electrophoresis technique developed by others. According to this assay, nicked (single-stranded DNA break), linear (double-stranded DNA break), and supercoiled (undamaged) plasmid DNA can be distinguished on an agarose gel by viewing differences in mobility (with the nicked plasmid DNA migrating at the slowest rate and supercoiled plasmid DNA migrating at the fastest rate) [13,15]. Samples were prepared that contained plasmid DNA and either (1) dH2O, (2) ARS, (3) TiO2 nanoparticles, or (4) ARS-coated TiO2 nanoparticles. […]

[1] = test system: kanamycin-resistant E. coli; experiment: Bacterial assay: incubation with samples, halogen light, plating on kanamycin LB agar; format: cell-based; conditions: incubated 10 minutes, 150 W halogen bulb 10 minutes, plated overnight at 37° C.
Procedure: When using dye-coated TiO2 nanoconjugates to inflict damage on bacteria, the dye alizarin red s was used (FIG. 24). The following protocol was used: a bacterial culture of kanamycin-resistant E. coli was grown overnight at 37° C. at 250 rpm and then stored at 4° C. for later use in the experiment. Aliquots of the starter bacterial culture were then incubated with either (1) dH2O, (2) alizarin red s, (3) 6 nm TiO2 nanoparticles, or (4) alizarin red s-coated-6 nm TiO2 nanoconjugates for 10 minutes. All samples were then exposed to a 150 W halogen bulb for 10 minutes and plated on kanamycin-containing LB agar plates, incubated overnight at 37° C., and photographed with a digital camera.

emerin = experiment: Emerin integrity and distribution in HeLa cells, fluorescence confocal microscopy; format: cell-based; conditions: regardless of light treatment
Procedure: (§1) HeLa cells were grown on #1 glass coverslips to approximately 20% confluence and then exposed to ARS-coated TiO2 nanoparticles or appropriate controls overnight. Respective samples were either exposed to no light or light with a Fiber-Lite MI-150 High Intensity Fiber Optic 150 W Halogen Light Illuminator for 10 min. All samples were fixed in 3.6% formaldehyde (Fisher Scientific, Waltham, Mass., USA) and permeabilized in 0.2% Triton-100× (Fisher Scientific) for 10 min. Cells were then stained with either a mouse monoclonal to emerin primary antibody (Abcam, Cambridge, Mass., USA) followed by an Alexa488 goat anti-mouse IgG (H+L) secondary antibody (Invitrogen, Grand Island, N.Y., USA) or a chicken polyclonal to lamin B1 primary antibody (Abcam) followed by an Alexa488 goat anti-chicken IgG (H+L) secondary antibody (Invitrogen). All samples were then stained with Hoechst 33342 (Sigma) and coverslips were mounted in P-phenylenediamine containing mounting media. Samples were imaged on an Olympus IX81-UCB Spinning Disc Confocal Microscope (Olympus, Center Valley, Pa., USA) using a 100 W mercury burner (Ushio, Tokyo, Japan), Brightline filters for DAPI, FITC, and TEXAS RED (Semrock, Rochester, N.Y., USA), and an ORCA-ER-1394 high-resolution digital camera (Hamamatsu, Japan). All images are presented as […] optical slice fluorescence overlays in either two or three dimensions. […]

lamin B1 = experiment: Lamin B1 integrity and distribution in HeLa cells, fluorescence confocal microscopy; format: cell-based; conditions: light or no light
Procedure: as §1

Compound | cellular responses (HeLa cells) | nicking of plasmid DNA (plasmid DNA) | bacterial growth (colonies on plate) [1] | emerin integrity and distribution (emerin) | lamin B1 integrity and distribution (lamin B1)
alizarin blue black b [ABBB] | no detectable cellular responses |  |  |  | 
O=C1c2ccccc2C(=O)c2c1cc(S(=O)(=O)[O-])c(O)c2O.[Na+] [ARS, alizarin red s] |  | slight expected increase in nicked plasmid DNA | bacterial colonies are witnessed | normal emerin integrity and distribution | normal lamin B1 integrity and distribution
